# Results taken from US10118935B2, “Melampomagnolide B dimers” (priority 2014, dated 2018).
# Assays:
# [1] = tested on: MCF7; test: NCI 60 cell line five dose, Breast Cancer
# [2] = tested on: NCI-H322M; test: NCI 60 cell line five dose, Non-Small Cell Lung Cancer
# [3] = tested on: HS 578T; test: NCI 60 cell line five dose, Breast Cancer; details: for Percent Growth: HS578T
# [4] = tested on: EKVX; test: NCI 60 cell line five dose, Non-Small Cell Lung Cancer; format: cell-based, human
# [5] = tested on: TK-10; test: NCI 60 cell line five dose, Renal Cancer
# [6] = tested on: U251; test: NCI 60 cell line five dose, CNS Cancer
# [7] = tested on: SK-MEL-2; test: NCI 60 cell line five dose, Melanoma
# [8] = tested on: OVCAR-4; test: NCI 60 cell line five dose, Ovarian Cancer
# [9] = tested on: T-47D; test: NCI 60 cell line five dose, Breast Cancer
# [10] = tested on: HOP-92; test: NCI 60 cell line five dose, Non-Small Cell Lung Cancer
# [11] = tested on: ACHN; test: NCI 60 cell line five dose, Renal Cancer
compound,measurement,setting,value
"C=C1C(=O)O[C@H]2[C@H]1CC/C(COC(=O)NCCCCNC(=O)OC/C1=C/CC[C@@]3(C)O[C@H]3[C@H]3OC(=O)C(=C)[C@@H]3CC1)=C\CC[C@@]1(C)O[C@@H]21 [JVM 3-54, bis(((1aR,7aS,10aS,10bS,E)-1a-Methyl-8-methylene-9-oxo-1a,2,3,6,7,7a,8,9,10a,10b-decahydrooxireno[2′,3′:9,10]cyclodeca[1,2-b]furan-5-yl)methyl)butane-1,4-diyldicarbamate]",TGI,[1],1.8 µM
same,Percent Growth,[1]; Log10 Concentration −4.0,−42%
same,Percent Growth,[1]; Log10 Concentration −5.0,−69%
same,Percent Growth,[1]; Log10 Concentration −6.0,24%
same,Percent Growth,[1]; Log10 Concentration −7.0,87%
same,Percent Growth,[1]; Log10 Concentration −8.0,92%
same,GI50,[2],12.6 µM
same,TGI,[2],25.8 µM
same,Percent Growth,[2]; Log10 Concentration −4.0,−94%
same,Percent Growth,[2]; Log10 Concentration −5.0,66%
same,Percent Growth,[2]; Log10 Concentration −6.0,104%
same,Percent Growth,[2]; Log10 Concentration −7.0,100%
same,Percent Growth,[2]; Log10 Concentration −8.0,100%
same,CC50,[2]; read-out: LC50,52.9 µM
same,GI50,[3]; HS 578T,2.54 µM
same,TGI,[3]; HS 578T,8.14 µM
same,Percent Growth,[3]; Log10 Concentration −4.0,−27%
same,Percent Growth,[3]; Log10 Concentration −5.0,−9%
same,Percent Growth,[3]; Log10 Concentration −6.0,90%
same,Percent Growth,[3]; Log10 Concentration −7.0,92%
same,Percent Growth,[3]; Log10 Concentration −8.0,90%
same,GI50,[4],3.69 µM
same,TGI,[4],13.5 µM
same,Percent Growth,[4]; Log10 Concentration −4.0,−98%
same,Percent Growth,[4]; Log10 Concentration −5.0,15%
same,Percent Growth,[4]; Log10 Concentration −6.0,96%
same,Percent Growth,[4]; Log10 Concentration −7.0,92%
same,Percent Growth,[4]; Log10 Concentration −8.0,97%
same,CC50,[4]; read-out: LC50 (the source's name),37.3 µM
same,GI50,[5],1.61 µM
same,TGI,[5],4.12 µM
same,Percent Growth,[5]; Log10 Concentration −4.0,−99%
same,Percent Growth,[5]; Log10 Concentration −5.0,−47%
same,Percent Growth,[5]; Log10 Concentration −6.0,75%
same,Percent Growth,[5]; Log10 Concentration −7.0,93%
same,Percent Growth,[5]; Log10 Concentration −8.0,97%
same,CC50,[5]; read-out: LC50,11.3 µM
same,GI50,[6],2.94 µM
same,TGI,[6],9.83 µM
same,Percent Growth,[6]; Log10 Concentration −4.0,−95%
same,Percent Growth,[6]; Log10 Concentration −5.0,−1%
same,Percent Growth,[6]; Log10 Concentration −6.0,95%
same,Percent Growth,[6]; Log10 Concentration −7.0,101%
same,Percent Growth,[6]; Log10 Concentration −8.0,99%
same,CC50,[6]; read-out: LC50,33.3 µM
same,GI50,[7],1.77 µM
same,TGI,[7],4.89 µM
same,Percent Growth,[7]; Log10 Concentration −4.0,−67%
same,Percent Growth,[7]; Log10 Concentration −5.0,−35%
same,Percent Growth,[7]; Log10 Concentration −6.0,78%
same,Percent Growth,[7]; Log10 Concentration −7.0,89%
same,Percent Growth,[7]; Log10 Concentration −8.0,101%
same,CC50,[7]; read-out: LC50,29.3 µM
same,GI50,[8],1.77 µM
same,Percent Growth,[8]; Log10 Concentration −4.0,−98%
same,Percent Growth,[8]; Log10 Concentration −5.0,−5%
same,Percent Growth,[8]; Log10 Concentration −6.0,68%
same,Percent Growth,[8]; Log10 Concentration −7.0,82%
same,Percent Growth,[8]; Log10 Concentration −8.0,93%
same,CC50,[8]; read-out: LC50,30.5 µM
same,GI50,[9],1.51 µM
same,TGI,[9],4.17 µM
same,Percent Growth,[9]; Log10 Concentration −4.0,−32%
same,Percent Growth,[9]; Log10 Concentration −5.0,−43%
same,Percent Growth,[9]; Log10 Concentration −6.0,70%
same,Percent Growth,[9]; Log10 Concentration −7.0,93%
same,Percent Growth,[9]; Log10 Concentration −8.0,95%
same,CC50,[9]; read-out: LC50,> 100 µM
same,GI50,[10],0.287 µM
same,TGI,[10],1.06 µM
same,Percent Growth,[10]; Log10 Concentration −4.0,−92%
same,Percent Growth,[10]; Log10 Concentration −5.0,−76%
same,Percent Growth,[10]; Log10 Concentration −6.0,2%
same,Percent Growth,[10]; Log10 Concentration −7.0,91%
same,Percent Growth,[10]; Log10 Concentration −8.0,91%
same,GI50,[11],3.44 µM
same,TGI,[11],12.9 µM
same,Percent Growth,[11]; Log10 Concentration −4.0,−91%
same,Percent Growth,[11]; Log10 Concentration −5.0,11%
same,Percent Growth,[11]; Log10 Concentration −6.0,95%
same,Percent Growth,[11]; Log10 Concentration −7.0,97%
same,Percent Growth,[11]; Log10 Concentration −8.0,100%
same,CC50,[11]; read-out: LC50,39.8 µM
